2 compounds from patent publication US20100093767A1, “Mitotic Kinase Inhibitors” (TAKEDA SAN DIEGO, INC., priority 2004, published 2010) can be followed below.

The term pIC50 denotes the negative decadic logarithm of the IC50, by convention in mol/L.

In this experiment the target is T1, KSP (HuEg5) (Homo sapiens, UniProt P52732).
T1 construct: I.D. No. 1 corresponds to residues 1-359 with the C-terminal 6-histidine tag; 6-histidine tag (C); made in house; host or cells: E. coli Tuner (DE3)
T1 sequence (P52732 with tags, fused parts or gaps): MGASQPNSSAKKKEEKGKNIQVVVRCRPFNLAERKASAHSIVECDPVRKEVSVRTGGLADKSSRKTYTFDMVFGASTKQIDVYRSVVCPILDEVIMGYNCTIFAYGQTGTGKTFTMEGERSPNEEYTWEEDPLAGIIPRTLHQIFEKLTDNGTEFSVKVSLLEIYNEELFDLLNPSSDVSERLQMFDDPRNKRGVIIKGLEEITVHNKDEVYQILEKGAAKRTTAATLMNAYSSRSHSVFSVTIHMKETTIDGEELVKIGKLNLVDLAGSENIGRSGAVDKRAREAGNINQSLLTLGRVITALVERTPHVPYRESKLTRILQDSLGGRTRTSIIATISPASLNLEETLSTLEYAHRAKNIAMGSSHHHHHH
Kind of experiment: in vitro enzymatic KSP (HuEg5) ATPase activity assay. Format: biochemical. Particulars: reference compounds; coupled PK/LDH ATPase assay, 25 μM ATP, 12 nM enzyme, 60 minutes at room temperature. An excerpt: The activity of compounds as KSP (HuEg5) inhibitors may be assayed in vitro, in vivo, or in a cell line. Further, compounds according to the present invention may be screened for activity against one or more kinesins. Provided below is the in vitro enzymatic KSP (HuEg5) ATPase activity assay for activity against KSP (HuEg5).
KSP (Eg5) DNA encoding residues 1-359 of the Kinesin motor domain sequence of the human enzyme may be amplified by PCR and cloned into the NcoI site of pET15b (Novagen), which incorporates a 6-histidine tag at the C-terminus. SEQ. I.D. No. 1 corresponds to residues 1-359 with the C-terminal 6-histidine tag and SEQ. I.D. No. 2 is the DNA sequence that was used to encode SEQ. […]
Recombinant protein may be isolated from cellular extracts by passage over ProBond resin (Invitrogen), and dialysis against buffer containing 25 mM Tris pH 7.6, 50 mM NaCl, 0.25 mM TCEP. The purity of KSP (Eg5) proteins may be determined on denaturing SDS-PAGE gel. […]
The inhibitory properties of compounds relative to KSP may be determined using a clear 384-well plate format under the following reaction conditions: 20 mM K-PIPES pH 6.8, 2 mM MgCl2, 1 mM EGTA, 1.5 mM KCl, 1 mM DTT, 0.01% Brij35, 25 μM ATP, 1 mM phosphoenolpyruvate (PEP), 0.4 mM NADH, 25 nM microtubules (MT), 1 μM Taxol, 30 units/ml rabbit muscle pyruvate kinase (PK), 30 units/ml rabbit muscle lactic dehydrogenase (LDH), and 2% DMSO. […]

pIC50: −log10 of the molar value.

Consider `CCOC(=O)C1=C(C)NC(=S)NC1c1cccc(O)c1` (centres unmarked) [Monastrol], for which the pIC50 is 4.35.
The compound `CCCCN1C(=O)C2Cc3c([nH]c4ccccc34)C(c3cccc(O)c3)N2C1=O` (centres unmarked) [HR22C16] gave a negative-log IC50 (pIC50) of 5.82.
